Source: PubChem BioAssay AID1919013 (Molecular Pharmacology Branch, DTP, NCI, 2023)
Several values for one entry are separate records, joined by “and”; a condition that tells them apart may be missing. Identical values can stand only once.

System: LG0703-F498-PDC complex spheroid growth
Assay: Anticancer human tumor LG0703-F498-PDC patient-derived lung adenocarcinoma cell line growth inhibition [AhR]
Details: for viability, T/C: stronger effect = lower value
Excerpt: Multicellular complex tumor spheroid response to aryl hydrocarbon receptor antagonists in combination with a variety of drugs and investigational agents in selected tumor cell lines
The current study was undertaken to assess response to aryl hydrocarbon receptor antagonists in combination with standard-of-care drugs and investigational agents in solid tumor complex spheroid models. Complex spheroids include a stromal component modeled by human endothelial cells (HUVEC) and fibroblasts modeled by human mesenchymal stem cells (MSCs). The concentration ranges selected for each drug and investigational agent were based upon clinically achievable concentrations if the clinical Cmax of the agent was known.
Compounds. The drugs and investigational agents: BAY 2416964 (NSC825713), GNF351 (NSC835774), CH-223191 (NSC835775), CPI-455 (NSC825282), aza-TdCyd (NSC777586), decitabine (NSC127716), belinostat (NSC758774), entinostat (NSC756642), pevonedistat (NSC761192), tazemetostat (NSC777109), talazoparib (NSC765396), olaparib (NSC753686), selinexor (NSC780203), nedisertib (M3814, NSC802822), bortezomib (NSC756655), venetoclax (NSC766270), doxorubicin (NSC123127), elimusertib (BAY189344, NSC800525), ceralasertib (AZD6738, NSC777638), TAK-243 (NSC785004), alisertib (NSC759677), etoposide (NSC141540), topotecan (NSC609699), eribulin (NSC707389), gemcitabine (NSC613327), carboplatin (NSC241240), cisplatin (NSC119875), and SN-38 (NSC673596) were obtained from the National Cancer Institute (NCI) Developmental Therapeutics Program Chemical Repository (32). The FDA-approved anticancer drug set is available from the Developmental Therapeutics Program at https://dtp.cancer.gov/organization/dscb/obtaining/available plates.htm. […] The stock solutions were prepared in dimethyl sulfoxide (DMSO, Sigma-Aldrich, St. Louis, MO, cat. D2650), except for the platinum compounds which were prepared in saline (Quality Biological, Gaithersburg, MD, cat. 114-055-101), at 800-fold the tested concentration and stored at -70 degrees C prior to their use. All drugs and investigational agents were tested over a range starting from a high concentration at or near the clinical Cmax and decreasing in half-log increments. If the clinical Cmax for an agent had not been determined, the highest concentration tested was 10 microM (Table 1).
Cell Culture. All cells were maintained in an incubator at 37 degrees C and 5% CO2 with 95% humidity. The PDC lines were cultured according to standard operating procedures established by the NCI PDMR (https://pdmr.cancer.gov). Briefly, all PDCs were thawed and cultured in Matrigel-coated flasks prepared with a working solution of 1X Ham's F-12 nutrient mix, without supplementation (Invitrogen, Waltham, MA, cat. 11765054), 100 U/mL penicillin-streptomycin (Invitrogen, cat. 15140122), and 2.5% Matrigel (Corning Inc., Corning, NY, cat. 354248) for the first three passages. All PDCs were cultured in complete DMEM/F-12 media containing advanced DMEM/F-12 (Invitrogen, cat. 12634028), 4.9% defined fetal bovine serum, heat inactivated (HyClone Laboratories Inc., Logan, UT, cat. SH30070.03HI), 389 ng/mL hydrocortisone (Sigma-Aldrich, cat. H4001), 9.7 ng/mL human EGF recombinant protein (Invitrogen, cat. PHG0313), 23.4 microg/mL adenine (Sigma-Aldrich, cat. A2786), 97.3 U/mL penicillin-streptomycin (Invitrogen, cat. 15140122), 1.9 mM L-glutamine (Invitrogen, cat. 25030081), and 9.7 microM Y-27632 dihydrochloride (Tocris Bioscience, Bristol, United Kingdom, cat. 1254). The PDCs were cultured in complete DMEM/F12 media without 10 microM Y-27632 dihydrochloride for at least two passages prior to the screen. The established cell lines NCI-H1341 and […] were cultured in DMEM/F-12, HEPES (Invitrogen, cat. 11330032), 5% defined fetal bovine serum (HyClone Laboratories Inc., cat. SH30070.03), ITS premix universal culture supplement [insulin (5 microg/mL), transferrin (5 microg/mL), and selenious acid (5 ng/mL)] […]
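Note: luminescence taken as a proxy for viable cell amount.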
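Throughout, for viability, T/C: percent of DMSO vehicle control where 100% means growth equal to vehicle.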

SMILES	viability, T/C (compound 0.0316 µM)	viability, T/C (compound 0.1 µM)	viability, T/C (compound 0.316 µM)	viability, T/C (compound 1 µM)	viability, T/C (compound 3.16 µM)	viability, T/C (compound 10 µM)	IC50 (curve of compound)	further results
COc1cccc2c1C(=O)c1c(O)c3c(c(O)c1C2=O)CC(O)(C(=O)CO)CC3OC1CC(N)C(O)C(C)O1 (centres undefined)	88% and 108% (2×)	82.8% and 79.7% and 87.9%	65.5% and 75.9% and 69.5%	40.7% and 49.1% and 47.5%	9.35% and 15.7% and 20.4%	0.71% and 0.83% and 1.09%	628 nM and 828 nM and 812 nM	–
Cc1ccccc1N=Nc1ccc(NC(=O)c2ccnn2C)c(C)c1	–	–	–	90.5% [middle of 20 runs]	85.7% [middle of 20 runs]	–	–	IC50 (compound alone, run of 06/14/2022): > 10000 nM
Cc1cncc(-c2nc(NCCc3c[nH]c4ccccc34)c3ncn(C(C)C)c3n2)c1	–	–	–	–	–	0.88% [middle of 19 runs]	–	–
Cn1ncnc1C1c2n[nH]c(=O)c3cc(F)cc(c23)NC1c1ccc(F)cc1 (centres undefined)	107% and 106% and 95.7%	86.6% and 102% and 90%	–	–	–	–	> 100 nM	viability, T/C (compound 0.000316 µM): 97.7% and 91.1% and 110%; viability, T/C (compound 0.001 µM): 106% and 103% and 98.6%; viability, T/C (compound 0.00316 µM): 96.4% and 111% and 102%; viability, T/C (compound 0.01 µM): 94% and 97.9% and 89.2%
NS(=O)(=O)OCC1CC(n2ccc3c(NC4CCc5ccccc54)ncnc32)CC1O (centres undefined)	94.3% and 100% and 101%	105% and 96.8% and 99.1%	107% and 102% and 97.8%	89.2% and 103% and 86.7%	65.2% and 76.8% and 62.9%	35.8% and 47% and 34.9%	5660 nM and 8900 nM and 5360 nM	–
Nc1ccccc1NC(=O)c1ccc(CNC(=O)OCc2cccnc2)cc1	90.9% and 98.6% and 92.2%	105% (2×) and 83.9%	94.5% and 81.1% and 70.5%	55.2% and 47.8% and 24.5%	10.7% and 14.8% and 2.77%	0.41% and 1.49% and 0.42%	1160 nM and 920 nM and 523 nM	–
Nc1ccn(C2OC(CO)C(O)C2(F)F)c(=O)n1 (centres undefined)	38% and 42% and 41.4%	37.1% and 44.8% and 35.2%	35.5% and 47.5% and 34.7%	32.2% and 38.6% and 33.6%	26.9% and 34.3% and 30.5%	20.3% and 28.3% and 21.4%	< 31.6 nM	–
Nc1ncn(C2CC(O)C(CO)O2)c(=O)n1 (centres undefined)	107% and 91.4% and 87.8%	88.2% and 98.2% and 82.9%	99.3% and 80.2% and 89.1%	80% and 86.7% and 87.6%	–	–	> 1000 nM	viability, T/C (compound 0.00316 µM): 101% (2×) and 107%; viability, T/C (compound 0.01 µM): 102% (2×) and 103%
Nc1ncn(C2CC(O)C(CO)S2)c(=O)n1 (centres undefined)	–	–	–	–	–	–	> 300 nM	viability, T/C (compound 0.000949 µM): 103% and 105% and 108%; viability, T/C (compound 0.003 µM): 92.8% and 98.3% and 109%; viability, T/C (compound 0.00949 µM): 95.4% and 103% and 105%; viability, T/C (compound 0.03 µM): 99.9% and 97.8% and 99.8%; viability, T/C (compound 0.0949 µM): 113% (2×) and 107%; viability, T/C (compound 0.3 µM): 97.1% and 96.6% and 98.7%
O=C(C=Cc1cccc(S(=O)(=O)Nc2ccccc2)c1)NO	101% and 111% and 110%	111% and 119% and 116%	94% and 91.7% and 82.7%	48.1% and 42% and 45.8%	12% and 11.7% and 7.36%	1.95% and 2.42% and 1.39%	966 nM and 835 nM and 827 nM	–
O=C(C=Cn1cnc(-c2cc(C(F)(F)F)cc(C(F)(F)F)c2)n1)NNc1cnccn1	–	–	–	–	–	–	215 nM and 109 nM and 60.6 nM	viability, T/C (compound 0.00949 µM): 84.1% and 93.9% and 79.2%; viability, T/C (compound 0.03 µM): 83.7% and 79.7% and 62.9%; viability, T/C (compound 0.0949 µM): 55.5% and 52% and 41.8%; viability, T/C (compound 0.3 µM): 48.2% and 37.7% and 35.7%; viability, T/C (compound 0.949 µM): 40.9% and 39.8% and 39.1%; viability, T/C (compound 3 µM): 31.4% and 35.3% and 32.7%
O=C(c1cc(Cc2n[nH]c(=O)c3ccccc23)ccc1F)N1CCN(C(=O)C2CC2)CC1	98.7% and 113% and 108%	106% and 89.2% and 102%	103% and 91.6% and 85.8%	99.9% and 95.1% and 114%	88.3% and 110% and 109%	74.2% and 90.4% and 94.5%	> 10000 nM	–
